Entries after “also recorded” stand apart in the source; their conditions may differ.
Columns and labels:
HPAEC monolayers = test: Transendothelial electrical resistance (TER) by ECIS in HPAEC monolayers; format: cell-based, human
Method: Human pulmonary artery endothial cells (HPAEC) and EBM-2 complete medium were purchased from Lonza (Allendale, N.J.). HPAEC were cultured according to the manufacturer's protocol and utilized at early (3-6) passages.
The barrier properties of endothelial cells monolayers were characterized using a highly sensitive electrical cell-substrate impedance sensing (ECIS) instrument to measure transendothelial electrical resistance (TER) as described (Birukova et al., 2004a. Microvasc Res 67(1):64-77; Kolosova et al., 2005, Circ Res 97(2):115-124). The TER data was normalized to the initial voltage.

LPS-induced ALI in mice [1] = test: BAL cell count; format: in vivo
Method: Mice were anesthetized with ketamine (150 mg/kg) and acetylpromazine (15 mg/kg) intraperitoneally (i.p.) before the exposure of the trachea via neck incision and intubation with 20-guage catheter and the right internal jugular vein was exposed via right chest incision for PBS or b-NAD installation. The mice were randomly divided into groups. LPS or sterile saline was instilled intratracheally (i.t.) via a 20-gauge catheter. Simultaneously, mice received either b-NAD (5.4 mg/kg, equivalent to final calculated plasma concentration […] or PBS in the control group intravenously (i.v.) through the internal jugular vein (IJ). The animals were allowed to recover for 18 hr. EBD was given through the IJ 2 hr prior to termination of the experiment. At termination, bronchoalveolar lavage (BAL) was collected. BAL was 1ml of 10% HBSS through the endotracheal catheter immediately on sacrifice with aspiration. BAL was immediately centrifuged and processed. After the BAL, ethylenediaminetetraacetic acid (EDTA) was used to flush the lungs of blood via the right heart ventricle and the lungs were then harvested. BAL and lungs were collected and stored at −70° C. for evaluation of lung injury. […]

LPS-induced ALI in mice [2] = test: Lung histology (H&E); format: in vivo
Method: Lungs perfused free of blood after perfusion with EDTA, were immersed in 5% buffered paraformaldehyde for 18 hr at 4° C. prior to histological evaluation by hematoxylin and eosin staining (H&E staining). The right lung lobes were used for consistency. H&E staining was done by deparafinizing and hydrating the slides to water. The slides were stained in Harris Hematoxylin for 15 min and Eosin for 30 sec. The slides were dehydrated, cleared and mounted with cytoseal.

NC(=O)C1=CN([C@@H]2O[C@H](COP(=O)(O)OP(=O)(O)OC[C@H]3O[C@@H](n4cnc5c(N)ncnc54)[C@H](O)[C@@H]3O)[C@@H](O)[C@H]2O)C=CC1 [β-NAD, beta-nicotinamide adenine dinucleotide]
thrombin-induced endothelial cell permeability (TER) (HPAEC monolayers; 100 nM thrombin in mixture with 50 mM b-NAD): significantly attenuated the thrombin-induced endothelial cell permeability | decrease in TER from base line (HPAEC monolayers; LPS (100 ng/ml) with β-NAD added): ~30% | PLY-induced loss of monolayer integrity (TER) (HPAEC monolayers; PLY in a mixture with 50 mM β-NAD): failed to produce such drastic effect | TER of HPAEC monolayers (endothelial barrier function) (HPAEC monolayers; b-NAD alone, quiescent HPAEC, 10-100 mM as printed): positive effect; also recorded: significant initial increase in TER | β-NAD effect on TER after cytochalasin B (HPAEC monolayers; cytochalasin B pretreatment 30 min, then 50 μM β-NAD): did not increase the TER | β-NAD effect on TER after nocodazole (HPAEC monolayers; nocodazole pretreatment 30 min, then 50 μM β-NAD): restored endothelial cell barrier integrity | total WBCs in BAL fluid (LPS-induced ALI in mice [1]; LPS treated mice, BAL at 24 hr): reduced total WBCs in BAL fluid | neutrophil count of BAL fluid (LPS-induced ALI in mice [1]; LPS/b-NAD compared to LPS only treated mice): decrease in neutrophil count | interstitial edema and infiltration of neutrophils (histology) (LPS-induced ALI in mice [2]; LPS/β-NAD vs LPS treated lung, 18 hr): less prominent | lung histology, β-NAD alone (LPS-induced ALI in mice [2]; β-NAD alone, no LPS): no effect
